Experiments:
OVCA429 cells = assay: colony formation assay, control and ARID1A CRISPR OVCA429 cells; type: cell-based, human; conditions: 1.25 μM
Description: FIG. 72 illustrates control and ARID1A CRISPR OVCA429 cells treated with or without 1.25 μM ACY1215 in a colony formation assay.
FIG. 73 illustrates the quantification of ARID1A CRISPR OVCA429 cells treated with or without 1.25 μM ACY1215 in a colony formation assay; n=4 independent experiments.
Generation of ARID1A CRISPR OVCA429 cells. OVCA429 cells were transfected with CRISPR-ARID1A (pSpCas9(BB)-2A-Puro (PX459)). The ARID1A gRNA sequence is: 5′-[…]-3′ (SEQ ID NO:33). Fugene6 transfection reagent (Promega) was used as per manufacturer's specifications. Clonal populations for the loss of ARID1A expression were screened through immunoblot.
(§1) Colony formation assays were performed as follows. Cell lines were infected with lentivirus pLKO.1-shRNAs or pLKO.1-control with puromycin selection marker. Infected cells were selected with 1 μg/mL of puromycin for 72 hours and the selected cells were seeded in 12-well or 24-well plates. Cell medium was changed every three days with appropriate drug doses for 14 days or until control wells became confluent. Colonies were washed twice with PBS and fixed with 10% methanol and 10% acetic acid in distilled water. Fixed colonies were stained with 0.005% crystal violet. Integrated density was measured using NIH ImageJ software.

[1] = system: ARID1A-mutated TOV21G cells; assay: ACY1215 sensitivity of TOV21G cells with or without wildtype ARID1A restoration; type: cell-based, human
Description: as §1

[2] = system: p53K120Ac in ARID1A wild-type RMG1 cells with or without ARID1A knockdown; assay: immunoblot of p53K120Ac, RMG1 with or without shARID1A; type: cell-based, human; conditions: 1.25 μM
Description: Expression of the indicated proteins was examined by immunoblot. GAPDH expression was used as a loading control.
For immunoblotting, protein was isolated as described in Bitler et al. Nat. Med. 2015, 21, 231-238. Briefly, protein was extracted with RIPA buffer (150 mM NaCl, 1% NP40, 0.5% sodium deoxycholate, 0.1% SDS, 50 mM Tris pH 8.0, and 1 mM PMSF). Protein was separated on a SDS-PAGE and transferred to PVDF membrane. For immunoblot of p53 post-translation modifications, cells were treated with a proteasome inhibitor MG132 (10 μM) to stabilize p53 protein.

[3] = system: ARID1A-mutated TOV21G tumors; assay: intrabursal orthotopic xenograft, ARID1A-mutated TOV21G; type: in vivo, mice
Description: Luciferase-expressing ARID1A-mutated TOV21G cells were orthotopically transplanted into the ovarian bursa sac of SCID/nude female mice. Tumors were allowed to establish for 14 days before randomized into two groups (n=6/group).
During treatment at indicated time interval mice were imaged based on luciferase expression to monitor tumor growth. Total flux (photons/sec) is graphed. *p=0.0313.
ARID1A-mutated TOV21G cells were orthotopically transplanted into the ovarian bursa sac of SCID/nude female mice. Tumors were allowed to establish for 2 weeks before the mice were randomized into two different treatment groups (n=5/group). […] After stopping the treatment, the mice from the indicated groups were followed for survival. Shown is the Kaplan-Meier survival curves for ACY1215 or vehicle control treated mice. The p-value was calculated by log-rank test.
The number of disseminated tumor nodules in peritoneal cavity was quantified.
Histological score (H-score) was calculated for 5 separate fields from 6 tumors from 6 individual mice from each of the indicated groups. Error bars represent S.E.M. The p-value was calculated via two-tailed t-test.
Immunofluorescence and immunohistochemical staining was performed as follows. Immunofluorescence was performed after 48 hours as indicated by fixing samples in 4% paraformaldehyde and permeabilizing with 0.5% Triton-X. Samples were incubated with primary antibodies for 2 hours at room temperature, highly cross absorbed secondary antibodies (Invitrogen) for 1 hour at room temperature and mounted with prolong anti-fade reagent (Invitrogen). Immuno-stained cells were imaged using a Leica Confocal microscope. […] Bitler et al. Nat. Med. 2015, 21, 231-238; Bitler et al. Cancer Research 2011, 71, 6184-6194. Expression of the stained markers was scored using a histologic score (H score) as previously described. McCarty, Jr. et al. Cancer research 1986, 46, 4244s-4248s.
The intrabursal orthotopic xenograft in vivo model was performed as described previously (Bitler et al. Nat. Med. 2015, 21, 231-238; Bitler et al. Cancer Research 2011, 71, 6184-6194). The protocols were approved by the Institutional Animal Care and Use Committee (IACUC). Briefly, 1×10^6 luciferase-expressing TOV-21G or RMG1 cells were unilaterally injected into the ovarian bursa sac of immunocompromised mice (n=6 per group). Two weeks after injection, tumors were visualized by injecting luciferin (intraperitoneal (i.p.): 4 mg/mice) resuspended in PBS and imaged with an In Vivo Imaging System (IVIS). […] Images were analyzed using Live Imaging 4.0 software. At end of the experiments, tumors were surgically dissected and tumor burden was calculated based on tumor weight. Intraperitoneally disseminated tumor nodules were quantified.
Seidel et al. Epigenomics 2015, 7, 103-118. […] Santo et al. Blood 2012, 119, 2579-2589. To determine the effects of HDAC6 inhibition in vivo on the growth of ARID1A-mutated tumors, luciferase-expressing ARID1A-mutated TOV21G cells were orthotopically transplanted into the bursa-sac covering the ovary of immunocompromised nude mice to mimic the tumor microenvironment. The injected ARID1A wild-type or mutant cells were allowed to grow for 2 weeks to establish the orthotopic tumors.

[4] = system: ovarian clear cell carcinoma cell lines with known ARID1A mutational status; assay: colony formation assay, panel of ovarian clear cell carcinoma cell lines with or without ARID1A mutation; type: cell-based, human; conditions: 12 days
Description: After 12 days culture, integrated density of colony formed by the indicated cells was quantified using NIH Image J software, and values were normalized to vehicle control. Data represent triplicates from independent experiments. Error bars represent S.E.M. The p-value was calculated via two-tailed t-test.
Indicated ovarian clear cell carcinoma cell lines with known ARID1A mutational status were treated with the indicated concentration of HDAC6 inhibitor CAY10603 or vehicle control in a colony formation assay. After 12 days culture, integrated density of colony formed by the indicated cells was quantified using NIH Image J software, and values were normalized to vehicle control. Data represent triplicates from independent experiments. Error bars represent S.E.M.
as §1

[5] = system: p53 target genes (BAX, PUMA, NOXA, CDKN1A) in ARID1A-mutated TOV21G cells; assay: RNA-seq of p53 target genes; type: cell-based, human; conditions: 1.25 μM
Description: RNA was extracted and utilized for next generation sequencing (RNA-seq). Expression of p53 target genes known to regulate apoptosis such as BAX, PUMA and NOXA, and known to regulate cell cycle arrest such as CDKN1A were not altered by HDAC6 inhibition in RNA-seq analysis.

[6] = dissected ARID1A-mutated tumors

Q: Which results are given for O=C(CCCCCCNC(=O)c1cnc(N(c2ccccc2)c2ccccc2)nc1)NO [rocilinostat, 2-(diphenylamino)-N-(7-(hydroxyamino)-7-oxoheptyl)pyrimidine-5-carboxamide]?
A: effect of ARID1A knockout on sensitivity (OVCA429 cells): significantly increased the sensitivity; effect of restoration of wildtype ARID1A on sensitivity [1]: reduced the sensitivity; p53K120Ac in ARID1A knockdown cells compared with controls [2]: significant increase in p53K120Ac; growth of ARID1A-mutated tumors (luciferase total flux) ([3]; 50 mg/kg daily i.p., 21 days): significantly inhibited the growth; number of tumor nodules in peritoneal cavity ([3]; 50 mg/kg daily, 3 weeks): significant decrease in the number of tumor nodules; tumor burden (tumor weight) ([3]; 50 mg/kg daily, 3 weeks): significantly reduced the burden; survival of mice bearing ARID1A-mutated tumors ([3]; 50 mg/kg daily, 3 weeks, followed after stopping treatment): significantly improved the survival; median survival ([3]; 50 mg/kg daily, 3 weeks, vehicle control 35 days, p=0.0023): 51 days; HDAC6 expression (IHC) [3, 6]: not affected; apoptotic marker cleaved caspase 3 (IHC H-score) [3, 6]: increased; cell proliferation marker Ki67 (IHC H-score) [3, 6]: significantly decreased; p53K120Ac staining (IHC) [3, 6]: significantly increased; sensitivity of ARID1A-mutated cells compared with ARID1A wild-type cells [4]: more sensitive; expression of p53 target genes (BAX, PUMA, NOXA, CDKN1A) [5]: not altered

Source: patent US20190192521A1, “Methods of Treating Arid1A-Mutated Cancers With HDAC6 Inhibitors and EZH2 Inhibitors” (The Wistar Institute of Anatomy and Biology, priority 2016, published 2019)
